From patent publication US4221909A, “P-Acetamidobenzoic acid salts of 9-(hydroxyalkyl) purines” (Sloan-Kettering Institute for Cancer Research, priority 1978, dated 1980)
Entries after “also recorded” stand apart in the source; their conditions may differ.

Legend:
Assay type in all cases: cell-based
[1] = test system: Influenza A Swine 1976 (Hlsw -N1); assay: Inhibition of influenza virus replication, Swine 1976
Experimental: Upon infection of a monolayer of tissue culture cells by influenza virus, the cell surface is altered so that guinea pig erythrocytes can be adsorbed to the cell surface. The number of foci of adsorbed cells (hemadsorption foci forming units HAFFU) is a quantitative measure of infectivity. The method is as follows.
When the Linbro tray HeLa cell cultures were ready for experimentation (see cells), the medium was decanted and 1 ml of maintenance medium (MEM with FCS reduced to 3%) containing the compound being tested at a given concentration was added to 4 replicate cultures within a tray.
A series of different drug concentrations ranging from 2.3 to 150 μg/ml were used. Maintenance medium alone was used for control cultures. After the administration of drug and control medium, 0.1 ml of the diluted viral suspension was added to experimental groups and infected control cultures. Saline alone was added to non-infected control cultures. The Linbro trays were then incubated at 37° C. for 18 hours, after which media in all groups was aspirated. Each culture was washed once with PBS. The saline was aspirated and 0.5 ml of a 0.4% v/v guinea pig red blood cell suspension in PBS was added to each culture well. The cultures remained at room temperature for 30 minutes after which the medium was decanted and culture washed […] with PBS to remove all but the specifically bound red cells. After the third wash, maintenance medium was added to all cultures.
A Howard Micrometer eyepiece (C8385) was inserted within the ocular of a Nikon inverted phase contrast microscope. Each culture was scanned with a 4× low paper objective and direct counts of hemadsorbed red cells were counted using the eyepiece grid as a field marker. Partial or complete fields were counted per experimental group depending on the resulting number and density of hemadsorbed cells in the infected control cultures. Magnification of 60× or 150× were chosen to obtain the best conditions for enumerating the hemadsorbed cells. Field factors were calculated for counting hemadsorption at 60× and 150×. At 60× magnification, total field count was calculated using a multiplication factor of 55.5. At 150× magnification the multiplication factor was 273. The multiplication factors of 55.5 and 273 represent the total number of fields at 60× and 150× magnifications, respectively. The number of fields counted ranged from 3 to 5 per well with 3 to 4 wells per treatment group employed (see raw data tables in results section for number of fields examined). Means and standard errors were calculated and the data was evaluated using student's t-test analysis.

Mouse spleen cells = assay: Mitogen Induced (Con A) Mouse Lymphocyte Proliferation
Excerpt: (§1) The following three assay procedures are used to evaluate the ability of the test substances to modulate the activity of several classes of cells in the immune system. In these systems it is possible to identify both immunopotentiating activity (evidence by an enhancement of the parameter examined) as well as immunosuppressant activity (evidenced by an inhibition of the parameter examined).
1. Mitogen--Induced Mouse Spleen Cell Assay--Mouse spleen cells contain a population of both B and T lymphocytes which can be stimulated by a number of foreign substances (e.g., plant mitogens such as Con A) to proliferate. This enhanced proliferation is an indication of enhanced cell mediated immunity. The method below describes the system used to evaluate test substances as immunopotentiators.
Concanavalin A (Calbiochem, La Jolla, Calif.), Lot #210073, lyophilized in NaCl, was prepared first as a 1% solution and diluted as a 2× concentration for each dilution (0.5, 1.0, 2.5 μg/ml).
Six to eight week old male Balb/c and C3 H inbred mice were obtained from the following sources: Flow Research Animals, Inc., Dublin, Va.; Charles River Breeding Laboratories, Wilmington, Mass.; Laboratory Supply Company, Indianapolis, Ind.; and Lionel Strong Foundation, San Diego, Calif.
Three to five mice were sacrificed by cervical dislocation and the spleens aseptically removed. Pooled spleens were minced and teased with sterile forceps; then strained through a double layer of nylon mesh. The cell suspension was washed once with 15 ml of RPMI 1640 supplemented with 5% fetal calf serum and antibiotics. Cells were cultured at a concentration of 10^6 cells/0.1 ml/well in micro-plates. Cultures were incubated in the presence or absence of mitogen in a humidified atmosphere containing 5% CO2 for 48 hours. The test compound was added to cultures at various concentrations concommitant with mitogen.
Proliferation was assayed by the degree of incorporation of 1.0 μCi of [^3 H] thymidine over an 18 hour incubation period. Cultures were harvested by a MASH unit (Otto Hiller Co., Madison, Wisconsin) and thymidine incorporation was assayed by liquid scintillation spectrometry. Cultures were performed in triplicate and data are expressed as means plus or minus the strandard error of the experimental means. Drug stimulation indices over control values were also calculated and portrayed graphically.

[2] = test system: guinea pig peritoneal macrophages; assay: Lymphokine Induced (MMF) Guinea Pig Macrophage Proliferation
Excerpt: as §1
3. The macrophage represents a subpopulation of white blood cells which is an important component of the immune system in control of both cellular and humoral immunity. The assay system described below evaluates the substances studied as potentiators of macrophage function.
Phytohemagglutinin(PHA) (HA-17) was purchased from Burroughs Wellcome. A preparation containing Macrophage Mitogen Factor (MMF) and Macrophage Activating Factor (MAF) was prepared from antigen-stimulated immune lymph node lymphocytes (guinea pig) as previously described by Hadden et al, Nature 257, 483-485 (1975). […] The active fraction was employed in both the proliferation and activation assays.
Ficoll-hypaque purified human peripheral blood lymphocytes were prepared and PHA-induced lymphocyte proliferation was assayed by the incorporation of tritiated thymidine as described in Hadden et al, Cell. Immunol. 20, 98-103 (1975). Each compound was analyzed in the presence of suboptimal, optimal and supraoptimal concentrations of PHA (0.001, 0.01, 0.1 units/ml respectively). Paraffin oil-induced guinea pig peritoneal macrophages were prepared and incubated as monolayer culture (>98% pure macrophages). Lymphokine (MMF)-induced proliferation was assayed by the incorporation of triturated thymidine at 3 and 5 days of culture as described, Hadden et al, Nature 257, 483-485 (1975). Lymphokine (MAF)-induced macrophage activation to kill Listeria monocytogenes following 5 days of culture in the presence or absence of MAF was performed during a 6 hour period as described in Hadden and England, Immunopharmacology, pages 87-100 (Plenum Press, 1977). Phagocytosis was quantitated during a 20-minute exposure to Listeria monocytogenes by counting the number of macrophages containing bacteria and the number of bacteria per phagocytic cell on gram stained monolayers in Labtek chambers. Intracellular killing of bacteria was evaluated by counting the number of cells containing bacteria and the number of bacteria/cell 6 hours after the initial 20 minute exposure. Parallel experiments in which macrophages were lysed and intracellular bacteria were cultured confirm the validity of bacterial activity determined by this manner in this sytem. The drugs were employed in each of the three systems over serial log concentration range in triplicate in the presence and absence of mitogen or lymphokine. Each type of experiment was performed at least three times. Previous experiments indicate a parallelism of response to pharmacologic modulation in the proliferation and activation assays.

influenza virus = assay: Anti-influenza activity (summary); settings: for number of different strains of influenza virus inhibited: concentrations ranging from 1-150 μg/ml

Structure (SMILES): CCCCCCC(CO)n1cnc2c(=O)[nH]cnc21 (centres unmarked) [NPT 15418]
- % Inhibition ([1]; >100 μg/ml): > 70%
- Maximum Percent Change, Mitogen Induced (Con A) Mouse Lymph. Prolif. (Mouse spleen cells; 1.0-10, listed as 15418): 73%
- Maximum Percent Change, Mitogen Induced (Con A) Mouse Lymph. Prolif. (Mouse spleen cells; 10-100, listed as 15418): 26%
- Maximum Percent Change, Mitogen Induced (Con A) Mouse Lymph. Prolif. (Mouse spleen cells; .01-1.0, listed as 15418): 41%
- Maximum Percent Change, Lymphokine Induced (MMF) Guinea Pig Mac. Prolif. ([2]; 1.0-10, listed as 15418): 80%
- Maximum Percent Change, Lymphokine Induced (MMF) Guinea Pig Mac. Prolif. ([2]; 10-100): -50%
- Maximum Percent Change, Lymphokine Induced (MMF) Guinea Pig Mac. Prolif. ([2]; .01-1.0): 12%
- DIP.PAcBA potentiation of Anti-Influenza activity (influenza virus): does potentiate the anti-influenza activity and Yes

Structure (SMILES): CCCCCC[C@H]([C@H](C)O)n1cnc2c(=O)[nH]cnc21 (relative stereo) [NPT 15392, Erythro-9-(2-Hydroxy-3-Nonyl)Hypoxanthine]
- % Inhibition ([1]; 0.1-1.0 μg/ml, listed as 15392): 30-50%
- % Inhibition ([1]; 10-100 μg/ml): > 70%
- % Inhibition ([1]; >100 μg/ml): > 70%
- anti-influenza activity by themselves (influenza virus): significant anti-influenza activity
- number of different strains of influenza virus inhibited (influenza virus): at least 4 different strains

Structure (SMILES): CCCCCCC(CO)n1cnc2c(=O)[nH]cnc21 (centres unmarked) [NPT 15417]
- % Inhibition ([1]; 10-100 μg/ml): > 70%
- Maximum Percent Change, Mitogen Induced (Con A) Mouse Lymph. Prolif. (Mouse spleen cells; 1.0-10, listed as 15417): 0%
- Maximum Percent Change, Mitogen Induced (Con A) Mouse Lymph. Prolif. (Mouse spleen cells; 10-100, listed as 15417): 0%
- Maximum Percent Change, Mitogen Induced (Con A) Mouse Lymph. Prolif. (Mouse spleen cells; .01-1.0, listed as 15417): 0%
- Maximum Percent Change, Lymphokine Induced (MMF) Guinea Pig Mac. Prolif. ([2]; 1.0-10, listed as 15417): 13%
- Maximum Percent Change, Lymphokine Induced (MMF) Guinea Pig Mac. Prolif. ([2]; 10-100): -50%
- anti-influenza activity by themselves (influenza virus): significant anti-influenza activity
- number of different strains of influenza virus inhibited (influenza virus): at least 4 different strains

Structure (SMILES): CCCCCC[C@H]([C@H](C)O)n1cnc2c(=O)[nH]cnc21 (relative stereo) [NPT 15410]
- % Inhibition ([1]; 0.1-1.0 μg/ml, listed as 15410): 50-70%
- % Inhibition ([1]; 1.0-10 μg/ml): 30-50%
- Maximum Percent Change, Mitogen Induced (Con A) Mouse Lymph. Prolif. (Mouse spleen cells; 1.0-10): 40%
- Maximum Percent Change, Mitogen Induced (Con A) Mouse Lymph. Prolif. (Mouse spleen cells; 10-100): 40%
- Maximum Percent Change, Mitogen Induced (Con A) Mouse Lymph. Prolif. (Mouse spleen cells; .01-1.0): 140%
- Maximum Percent Change, Lymphokine Induced (MMF) Guinea Pig Mac. Prolif. ([2]; 1.0-10): 23%
- Maximum Percent Change, Lymphokine Induced (MMF) Guinea Pig Mac. Prolif. ([2]; .01-1.0): 12%
- DIP.PAcBA potentiation of Anti-Influenza activity (influenza virus): does not potentiate the anti-influenza activity; also recorded: Both are equally active
